Inconclusive results and toxic doses are left out. Cut-off read from the data, not from the text of the source: active = T/C of 150% or more; inactive = T/C below 125%.
System: L1210 leukemia ip in BDF1 mice, survival T/C
Assay: NCI In Vivo Anticancer Drug Screen. Data for tumor model L1210 Leukemia (intraperitoneal) in B6D2F1 (BDF1) mice
Conditions: endpoint: mean survival time, higher = longer survival
Procedure, shortened: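 Each compound was tested against a transplantable tumor grown in mice. The endpoint was survival, with treated animals benchmarked against vehicle controls as a simple ratio.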

[1] = dose: 100.0 mg/kg/injection, schedule: Q04DX003 (ip), vehicle: saline with Tween-80
[2] = dose: 200.0 mg/kg/injection, schedule: Q04DX003 (ip), vehicle: saline with Tween-80
[3] = dose: 400.0 mg/kg/injection, schedule: Q04DX003 (ip), vehicle: saline with Tween-80
[4] = dose: 50.0 mg/kg/injection, schedule: Q01DX001 (ip), vehicle: saline
[5] = dose: 100.0 mg/kg/injection, schedule: Q01DX001 (ip), vehicle: saline
[6] = dose: 100.0 mg/kg/injection, schedule: Q01DX009 (ip), vehicle: Klucel (hydroxypropylcellulose) (HPC)
[7] = dose: 200.0 mg/kg/injection, schedule: Q01DX001 (ip), vehicle: saline
[8] = dose: 200.0 mg/kg/injection, schedule: Q01DX009 (ip), vehicle: Klucel (hydroxypropylcellulose) (HPC)
[9] = dose: 400.0 mg/kg/injection, schedule: Q01DX001 (ip), vehicle: saline
[10] = dose: 400.0 mg/kg/injection, schedule: Q01DX009 (ip), vehicle: Klucel (hydroxypropylcellulose) (HPC)

Measured: T/C

COc1ccc(C(=O)OCc2ccccc2CN2CCCCC2)cc1
inactive: dose: 100.0 mg/kg/injection, schedule: Q04DX002 (ip), vehicle: Klucel (hydroxypropylcellulose) (HPC) 102 % of control | dose: 200.0 mg/kg/injection, schedule: Q04DX002 (ip), vehicle: Klucel (hydroxypropylcellulose) (HPC) 102 % of control | dose: 400.0 mg/kg/injection, schedule: Q04DX002 (ip), vehicle: Klucel (hydroxypropylcellulose) (HPC) 86 % of control

NC(=S)NCCO
inactive: dose: 100.0 mg/kg/injection, schedule: Q04DX003 (ip), vehicle: saline 105 % of control | dose: 200.0 mg/kg/injection, schedule: Q04DX003 (ip), vehicle: saline 98 % of control | dose: 400.0 mg/kg/injection, schedule: Q04DX003 (ip), vehicle: saline 100 % of control

Cc1cc[c]([Hg][I])cc1
inactive: dose: 6.25 mg/kg/injection, schedule: Q01DX009 (ip), vehicle: Klucel (hydroxypropylcellulose) (HPC) 93 % of control | dose: 12.5 mg/kg/injection, schedule: Q01DX009 (ip), vehicle: Klucel (hydroxypropylcellulose) (HPC) 94 % of control | dose: 25.0 mg/kg/injection, schedule: Q04DX002 (ip), vehicle: Klucel (hydroxypropylcellulose) (HPC) 87 % of control

COC(=O)c1ccc(OC)c2nc3c(C=O)c(OC)cc(OC)c3nc12
inactive: [1] 102 % of control | [2] 109 % of control | [3] 95 % of control

Cc1cc(N(CCCl)CCCl)ccc1C=Nc1ccccc1C(=O)O
inactive: [4] 94 % of control | dose: 50.0 mg/kg/injection, schedule: Q01DX009 (ip), vehicle: Klucel (hydroxypropylcellulose) (HPC) 106 % of control | dose: 100.0 mg/kg/injection, schedule: Q01DX001 (ip), vehicle: Klucel (hydroxypropylcellulose) (HPC) 94 % of control | [5] 105 % of control | [6] 113 % of control | dose: 200.0 mg/kg/injection, schedule: Q01DX001 (ip), vehicle: Klucel (hydroxypropylcellulose) (HPC) 103 % of control | [7] 103 % of control | [8] 120 % of control | dose: 400.0 mg/kg/injection, schedule: Q01DX001 (ip), vehicle: Klucel (hydroxypropylcellulose) (HPC) 101 % of control | [9] 105 % of control | [10] 98 % of control

Cc1c2[n+](cc3ccccc13)C(C)CC(=O)N2 (centres undefined)
inactive: dose: 18.75 mg/kg/injection, schedule: Q01DX009 (ip), vehicle: saline 95 % of control | dose: 37.5 mg/kg/injection, schedule: Q01DX009 (ip), vehicle: saline 95 % of control | dose: 37.5 mg/kg/injection, schedule: Q04DX003 (ip), vehicle: saline 97 % of control | dose: 75.0 mg/kg/injection, schedule: Q01DX001 (ip), vehicle: saline 100 % of control | dose: 75.0 mg/kg/injection, schedule: Q01DX009 (ip), vehicle: saline 94 % of control | dose: 75.0 mg/kg/injection, schedule: Q04DX003 (ip), vehicle: saline 101 % of control | dose: 150.0 mg/kg/injection, schedule: Q01DX001 (ip), vehicle: saline 94 % of control | dose: 150.0 mg/kg/injection, schedule: Q04DX003 (ip), vehicle: saline 104 % of control

O=[N+]([O-])c1cccc(N=P(c2ccccc2)(c2ccccc2)c2ccccc2)c1
inactive: [6] 95 % of control | dose: 100.0 mg/kg/injection, schedule: Q04DX003 (ip), vehicle: Klucel (hydroxypropylcellulose) (HPC) 117 % of control | [8] 95 % of control | dose: 200.0 mg/kg/injection, schedule: Q04DX003 (ip), vehicle: Klucel (hydroxypropylcellulose) (HPC) 95 % of control | [10] 88 % of control | dose: 400.0 mg/kg/injection, schedule: Q04DX003 (ip), vehicle: Klucel (hydroxypropylcellulose) (HPC) 88 % of control

O=C(CCCC(=O)N/N=C/c1ccc(Cl)c([N+](=O)[O-])c1)N/N=C\c1ccc(Cl)c([N+](=O)[O-])c1
inactive: [4] 96 % of control | [5] 102 % of control | [7] 96 % of control | [9] 98 % of control

CN(C)C(=O)Nc1cccc(OC(=O)Nc2ccccc2)c1
inactive: [1] 104 % of control | [2] 96 % of control | [3] 96 % of control

— PubChem BioAssay AID248 (DTP/NCI, 2004)
